From ChEMBL document CHEMBL1139965, “Synthesis and antifungal activities of new fluconazole analogues with azaheterocycle moiety” (2007)
≈ marks a conversion by molar mass, not a printed value.

Columns and labels:
Candida albicans = assay: Antifungal activity against Candida albicans CA980001 by alamar blue assay; assay type: functional
Aspergillus fumigatus = assay: Antifungal activity against Aspergillus fumigatus AF980003 by alamar blue assay; assay type: functional

Structure (SMILES)	MIC (Candida albicans) [µg/mL]	MIC (Aspergillus fumigatus) [µg/mL]
OC(Cn1cncn1)(Cn1nc2ccccc2n1)c1ccc(Cl)cc1Cl (stereo unspecified)	0.01 (≈ 0.0257 µM)	> 100
O[C@@](Cn1cncn1)(Cn1nnc2ccccc21)c1ccc(F)cc1F	0.025 (≈ 0.0702 µM)	> 100
O[C@@](Cn1cncn1)(Cn1ncc2ccccc21)c1ccc(F)cc1F	0.019 (≈ 0.0535 µM)	24 (≈ 67.5 µM)
O[C@@](Cn1cncn1)(Cn1ncc2ccccc21)c1ccc(Cl)cc1Cl	0.0007 (≈ 0.0018 µM)	> 100
O[C@@](Cn1cncn1)(Cn1nnc2ccccc21)c1ccc(Cl)cc1Cl	0.02 (≈ 0.0514 µM)	> 100
O[C@@](Cn1cncn1)(Cn1cnc2ccccc21)c1ccc(F)cc1F	0.233 (≈ 0.656 µM)	> 100
O[C@@](Cn1cncn1)(Cn1cnc2ccccc21)c1ccc(Cl)cc1Cl	0.026 (≈ 0.067 µM)	> 100
O[C@@](Cn1cncn1)(Cn1ccc2cccnc21)c1ccc(F)cc1F	0.007 (≈ 0.0197 µM)	21 (≈ 59.1 µM)
O[C@@](Cn1cncn1)(Cn1ccc2cccnc21)c1ccc(Cl)cc1Cl	0.0031 (≈ 0.00798 µM)	29 (≈ 74.7 µM)
O[C@](CN1CCc2ccccc21)(Cn1cncn1)c1ccc(Cl)cc1Cl	2.72 (≈ 6.99 µM)	> 100
O[C@](CNc1ccc2[nH]ccc2c1)(Cn1cncn1)c1ccc(Cl)cc1Cl	0.026 (≈ 0.0646 µM)	> 100
O=Cc1cn(C[C@@](O)(Cn2cncn2)c2ccc(Cl)cc2Cl)c2ccccc12	0.045 (≈ 0.108 µM)	> 100
CCOC(=O)Cc1cn(C[C@@](O)(Cn2cncn2)c2ccc(Cl)cc2Cl)c2ccccc12	0.006 (≈ 0.0127 µM)	> 100
CCOC(=O)CCc1cn(C[C@@](O)(Cn2cncn2)c2ccc(Cl)cc2Cl)c2ccccc12	0.33 (≈ 0.677 µM)	> 100
O=C1CCCc2c1ccn2C[C@@](O)(Cn1cncn1)c1ccc(Cl)cc1Cl	0.07 (≈ 0.173 µM)	> 100
OC(Cn1cncn1)(Cn1nc2ccccc2n1)c1ccc(F)cc1F (stereo unspecified)	> 0.036	> 100
C[C@@H]1[C@H](O)[C@@H](C)/C=C/C=C/C=C/C=C/C=C/C=C/C=C/[C@H](O[C@@H]2O[C@H](C)[C@@H](O)[C@H](N)[C@@H]2O)C[C@@H]2O[C@](O)(C[C@@H](O)C[C@@H](O)[C@H](O)CC[C@@H](O)C[C@@H](O)CC(=O)O[C@H]1C)C[C@H](O)[C@H]2C(=O)O [AMPHOTERICIN B]	0.12 (≈ 0.13 µM)	0.14 (≈ 0.152 µM)
OC(Cn1cncn1)(Cn1cncn1)c1ccc(F)cc1F [FLUCONAZOLE]	0.02 (≈ 0.0653 µM)	
CCC(C)n1ncn(-c2ccc(N3CCN(c4ccc(OCC5COC(Cn6cncn6)(c6ccc(Cl)cc6Cl)O5)cc4)CC3)cc2)c1=O (stereo unspecified) [ITRACONAZOLE]		0.5 (≈ 0.709 µM)
